{
  "source": "patent US20110201562A1",
  "about": "“FORMULATIONS AND METHOD FOR TREATING BALDNESS” (SEDERMA, priority 2005, published 2011)",
  "key": {"5α-reductase": {"tested_on": "5α-reductase", "test": "Inhibition of 5α-reductase (statement, no method)", "format": "biochemical"}, "[1]": {"tested_on": "blood vessels in the dermis", "test": "Vasodilation on the scalp (statement, no method)"}, "hair follicles": {"tested_on": "hair follicles", "test": "Cultured hair follicles: growth monitored over 14 days", "format": "cell-based", "details": "2 ppm in medium", "method": "Excess hair follicles prepared in the context of a micrograft transplantation session were collected for culturing in a medium similar to that reported in, and herein encorporated by reference, Philpott et al., Whole Hair Follicule Culture, Dermatologic Clinics 595 (Oct. 14, 1996). Said hair follicles were then individually incubated at 37° C. under an air plus CO2 (at 5%) atmosphere for 14 days. The explants were then divided into four groups: 1) a control group for the culture medium alone, 2) a positive control group which was exposed to a medium of 2 ppm Minoxidil®, 3) a test group exposed to the peptide biotinyl-GHK in a medium of 2 ppm biotinyl-GHK, and 4) a test group exposed to the peptide biotinyl-GHK in a medium of 5 ppm biotinyl-GHK. The culture medium was changed every 2 days. General morphology was observed on Day 1 and Day 14. Concomitantly, a fraction of the follicles were frozen for the purposes of conducting more advanced immunohistochemical studies. Growth in the follicles was monitored using a digital camera with images being taken on Day 0, Day 3, Day 5, Day 7, Day 11, and Day 14."}},
  "data": [
    {"smiles": "CC1(C)CC[C@]2(C(=O)O)CC[C@]3(C)C(=CC[C@@H]4[C@@]5(C)CC[C@H](O)C(C)(C)[C@@H]5CC[C@]43C)[C@@H]2C1", "note": "[oleanolic acid]", "values": [
      {"measurement": "inhibitory action on the enzyme 5α-reductase", "setting": "5α-reductase", "value": "strong inhibitory action"}
    ]},
    {"smiles": "O=c1cc(-c2ccc(O)cc2)oc2cc(O)cc(O)c12", "note": "[Apigenin]", "values": [
      {"measurement": "effect of use on the scalp on blood vessels", "setting": "[1]", "value": "dilates the blood vessels in the dermis"}
    ]},
    {"smiles": "Nc1cc(N2CCCCC2)nc(N)[n+]1[O-]", "note": "[Minoxidil®, Minoxidil, reference compound]", "values": [
      {"measurement": "more growth than observed from the control group", "setting": "hair follicles", "value": 58, "unit": "%"}
    ]}
  ]
}
